Reference: US6677307B2, “TGF-α polypeptides, functional fragments and methods of use therefor” (Kaleidos Pharma, Inc., priority 1999, dated 2004)

Test system: mouse intestines
Test: histological examination of intestines of CP-treated mice
Assay type: in vivo
Description: The experiment procedure dosed those animals to be treated with TGFα 57 4 hours prior to challenge with CP. A single dose of CP was administered. Additional doses (as indicated) of TGFα 57 were made at 24 hours, 48 hours, 72 hours and 96 hours after the CP dose. All doses were made by IP injection. Controls were dosed with saline instead of either or both of CP and TGF-α57.
The animals were sacrificed about 4 hours after the last TGF-α57 (or saline) dose. Key organs were removed and spleens were immediately weighed after a clean incision. All the relevant organs were placed in formalin, transported for histopathological analysis, mounted, sectioned, stained and observed. The results of this histological analysis of the spleens for hematopoietic effect and the GI tract (below) provided surprising and unexpected data of the effect of TGF-α57 activity.
TGFα or a peptide from formula I, formula II, formula III, formula IV, formula V, or formula VI having TGFα activity or combinations thereof are also useful for treating mucositis associated intestinal bleeding, dyspepsia caused by with cytotoxic therapy and for improving the barrier function of the GI tract compromised by cytotoxic therapy. The in vivo experiment with seven groups of mice described above for hematopoietic effects noted in spleens also examined the GI tract of these treated mice. […] A single row of intestinal crypt is found at the base of the mucosa. These crypts that lie between adjacent villi are surrounded by the same lamina propria that form the villous cores. Both columnar absorptive cells and goblet cells cover the villous surfaces. The goblet cells contain apical clear vacuoles. […] Specifically, the villus was long and slender. Both absorptive cells and goblet cells were visible at the surface of the villi, and there was an abundant amount of goblet cells on the surface.
A 160×magnification of the intestines of a CP-treated mouse, a normal mouse and a CP treated and TGFα57 treated mouse at the same doses as described above. […] The crypts were irregularly shaped and in had various heights. […] The crypts also appeared normal.
Red cells were visible at the damaged surface indicating intestinal bleeding. […] Globlet cells appeared interspersed, necrotic and fewer in number than normal. […] Specifically, the epithelial cells appeared normal with extended brush borders. The nuclei were very densely stained and elongated.
The histological data is summarized in FIG. 4 that measured average crypt height of the three groups of mice.
An alcian blue staining method permitted differentiation of absorptive cells and goblet cells. Goblet cell mucus is stained a blue color while the absorptive cells remain less stained. […] In the normal intestine each villus extended from the luminal surface to the basal muscularis mucosal surface. Goblet cells were scattered and predominated in the base of the villus whereas columnar absorptive cells lined the luminal surface. […] The injured absorptive and goblet cells were degenerating at the tip of the villi and abundant secretory mucus material was stained in the luminal surface. In the CP/TGF-α mouse, there were an increased number of goblet cells scattered throughout the villi. The intestinal villi appeared normal with elongation. […] The luminal plasma membranes of the villi were well protected by TGF-α treatment. The number of goblet cells was counted on the average unit length of intestine.

TGF-α57: 57 amino acid polypeptide of formula VI: Ser-Leu-Ser-Leu-Pro-Ala-Met-Human TGFα
intestinal structure (cross section histology) (CP 10 mg/kg and 50 μg/kg): intestinal structure was very similar to the normal intestinal structure | number of goblet cells on the average unit length of intestine (alcian blue) (CP 10 mg/kg and 50 μg/kg): increased the number from CP treatment to a higher level than normal intestine | villa surface, higher magnification (CP 10 mg/kg and 50 μg/kg): protection of the villa surface | villi and crypts, 160× magnification (CP 10 mg/kg and 50 μg/kg): normal appearing villi | average crypt height (CP treatment, 50 μg/kg, FIG. 4): more-than-restore crypt height loss
